Experimental findings from patent US9890147B2 (BAYER PHARMA AKTIENGESELLSCHAFT, priority 2012, dated 2018) are described below.

What is called IC50 is the concentration that gives 50% inhibition.

One test addresses T1, BRD4 (BD1) (Homo sapiens, UniProt O60885).
T1 construct: with relatively long constructs also being possible, preferably amino acids 44-168; made in house; host or cells: E. coli
The test is described as follows: Binding assay BRD4/acetylated peptide H4 (TR-FRET protein-protein interaction assay). The method in brief:
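Displacement of biotin-Ac-H4 peptide from His6-tagged BRD4(BD1), final usually 10 nM, read as Eu-streptavidin to anti-His-XL665 TR-FRET (665/620 nm). Compounds tested at 11 doses up to 20 μM in duplicate, pH 7.5 HEPES, 22 °C then 4 °C incubation; IC50 by 4-parameter regression.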
In general terms: Time-resolved FRET reads energy transfer from a long-lived donor to a nearby acceptor.

The next test relates to MOLM-13 cells. As to the kind of experiment: Cell proliferation assay (alamarBlue), MOLM-13. Type of test: cell-based. As to conditions: Homo sapiens, 96 hours incubation, inhibition of cell proliferation. Put shortly: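 IC50 = concentration giving 50% growth inhibition relative to buffer-treated cells, after subtracting baseline fluorescence taken before dosing. Compound applied at 1E-5 to 1E-8 M for 96 h at 37 °C in RPMI1640 with 10% FCS; alamarBlue signal at 530/590 nm.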
On the technique in general: Resazurin is reduced to fluorescent resorufin, in cell work by metabolically active cells.

Another test concerns MV4-11 cells. The test is described as follows: Cell proliferation assay (alamarBlue), MV4-11. Type of test: cell-based. As to conditions: Homo sapiens, 72 hours incubation, inhibition of cell proliferation. The method in brief:
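Cells seeded at 5000/well in RPMI1640 + 10% FCS, incubated overnight at 37° C, then treated with compound (1E-5 to 1E-8 M) for 72 h at 37° C. Viability by alamarBlue fluorescence (ex 530/em 590 nm); pre-treatment readings subtracted, IC50 derived versus buffer-treated cells.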

For a further test, the system named is B16F10 cells. As to the kind of experiment: Cell proliferation assay (alamarBlue), B16F10. Type of test: cell-based. To be noted: Mus musculus, B16-F10, 96 hours incubation, inhibition of cell proliferation. The method in brief: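 alamarBlue fluorescence (ex 530/em 590 nm) read after overnight seeding at 300-500 cells/well in DMEM + 10% FCS, then after 96 h at 37 °C with compound at 1E-8 to 1E-5 M. Baseline subtracted from endpoint, compared with buffer-treated cells; IC50 = concentration giving 50% proliferation inhibition.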

The test system of a further test is LOX-IMVI cells. As to the kind of experiment: Cell proliferation assay (alamarBlue), LOX-IMVI. Type of test: cell-based. To be noted: Homo sapiens, 72 hours incubation, inhibition of cell proliferation. The method in brief: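 alamarBlue fluorescence (530 nm excitation, 590 nm emission) measured before dosing and after 72 h at 37° C exposure to 1E-5–1E-8 M compound; 1000 cells/well plated in RPMI1640/10% FCS the night before. IC50 from baseline-corrected signal relative to buffer-treated wells.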

The test system of the next test is MOLP-8 cells. The test is described as follows: Cell proliferation assay (alamarBlue), MOLP-8. Type of test: cell-based. As to conditions: Homo sapiens, 120 hours incubation, inhibition of cell proliferation. Put shortly: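 MOLP-8 cells in RPMI1640 with 20% FCS, 4000 cells/well, treated overnight after seeding with substance at 1E-5 to 1E-8 M for 120 h at 37° C. Viability read by alamarBlue fluorescence (ex 530, em 590); pre-treatment values subtracted, compared with buffer-only cells to derive IC50.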

The next test relates to KMS-12-PE cells. As to the kind of experiment: Cell proliferation assay (alamarBlue), KMS-12-PE. Type of test: cell-based. As to conditions: Homo sapiens, 120 hours incubation, inhibition of cell proliferation. The method in brief:
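KMS-12-PE myeloma cells in RPMI1640 with 20% FCS were exposed to compound (1E-5 to 1E-8 M) for 120 h at 37° C. AlamarBlue fluorescence (ex 530, em 590 nm) read before and after treatment; the difference versus buffer-treated cells gave IC50.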

For a further test, the system named is LAPC-4 cells. As to the kind of experiment: Cell proliferation assay (alamarBlue), LAPC-4. To be noted: Homo sapiens, LAPC4; inhibition of cell proliferation, LAPC-4 (prostate cancer), 1 nM methyltrienolone, 168 hours. Type of test: cell-based. The method, then:
(§1) In accordance with the invention, the capability of the substances to inhibit cell proliferation was determined Cell viability was determined using the alamarBlue® reagent (Invitrogen) in a Victor X3 Multilabel Reader (Perkin Elmer). The excitation wavelength was 530 nm and the emission wavelenth […].
The LAPC-4 cells (ATCC, PTA-1441TM) were sown at a concentration of 4000 cells/well in 100 μl growth medium (RPMI1640, 2 mM L-glutamine, 10% cFCS) on 96-well microtitre plates. A day later, the LAPC-4 cells were treated with 1 nM methyltrienolone and various substance dilutions.
(§2) After an overnight incubation at 37° C., the fluorescence values (CI values) were determined. The plates were then treated with various substance dilutions (1E-5 M, 3E-6 M, 1E-6M, 3E-7 M, 1E-7 M, 3E-8 M, 1E-8 M) and incubated at 37° C. for 72 (MV4-11-, LOX-IMVI cells), 96 (MOLM-13-, B16F10-, MDA-MB-431-, Caov-3 cells), 120 (MOLP-8-, KMS-12-PE cells) or 168 (LAPC-4 cells) hours. The fluorescence values (CO values) were then determined. For the data analysis, the CI values were subtracted from the CO values and the results were compared between cells treated with different dilutions of the substance or with buffer solution only. These were used to calculate the IC 50 values (substance concentration required for 50% inhibition of cell proliferation).

The test system of the next test is MDA-MB-231 cells. The test is described as follows: Cell proliferation assay (alamarBlue), MDA-MB-231. Type of test: cell-based. To be noted: Homo sapiens; inhibition of cell proliferation, MDA-MB-231 (breast carcinoma), 96 hours. The procedure:
as §1
The MDA-MB-231 cells (DSMZ, ACC 732) were sown at a concentration of 4000 cells/well in 100 μl growth medium (DMEM/Ham's F12 medium, 10% FCS) on 96-well microtitre plates. The Caov-3 cells (ATCC, HTB-75) were sown at a concentration of 2000 cells/well in 100 μl growth medium (MEM Earle's medium, 10% FCS) on 96-well microtitre plates.
as §2

A further test deals with Caov-3 cells. The test is described as follows: Cell proliferation assay (alamarBlue), Caov-3. Type of test: cell-based. As to conditions: Homo sapiens; inhibition of cell proliferation, Caov-3 (ovarian carcinoma), 96 hours. Put shortly: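 Caov-3 (MEM Earle's, 10% FCS, 2000 cells/well) and MDA-MB-231 (DMEM/Ham's F12, 10% FCS, 4000 cells/well) were treated after overnight attachment with 1E-5 to 1E-8 M compound. Caov-3 exposure was 96 h. alamarBlue fluorescence (ex 530, em 590 nm) was read after background subtraction of day-0 values, and IC50 calculated versus buffer-treated cells.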

In the case of `CNC(=O)N1N=C(c2ccc(-c3cccnc3Cl)cc2)c2cc(OC)c(OC)cc2CC1C` (racemic) [Example 4, (±)-1-[4-(2-chloropyridin-3-yl)phenyl]-7,8-dimethoxy-N,4-dimethyl-4,5-dihydro-3H-2,3-benzodiazepine-3-carboxamide], the half-maximal inhibitory concentration (IC50) on BRD4 (BD1) stood at 80 nM; in the test with MOLM-13 cells, 190 nM; with MV4-11 cells, 120 nM; in the test with B16F10 cells, 110 nM; with LOX-IMVI cells, 450 nM; in the test on MOLP-8 cells, 170 nM. The half-inhibitory concentration (IC50) in the test with KMS-12-PE cells was 110 nM; with LAPC-4 cells, 90 nM; in the test with MDA-MB-231 cells, 170 nM; in the test with Caov-3 cells, 320 nM.

As for `CNC(=O)N1N=C(c2ccc(-c3c(C)nn(C)c3C)cc2)c2cc(OC)ccc2C[C@@H]1C` [Example 22, (4S)-8-methoxy-N,4-dimethyl-1-[4-(1,3,5-trimethyl-1H-pyrazol-4-yl)phenyl]-4,5-dihydro-3H-2,3-benzodiazepine-3-carboxamide], the half-inhibitory concentration (IC50) came to 30 nM on BRD4 (BD1); 80 nM in the test on MOLM-13 cells; 880 nM in the test with MV4-11 cells; 100 nM with B16F10 cells; 240 nM with LOX-IMVI cells; 90 nM with MOLP-8 cells. Also, the 50% inhibitory concentration (IC50) in the test with KMS-12-PE cells was determined as 110 nM; with LAPC-4 cells, 60 nM; in the test with MDA-MB-231 cells it was 150 nM; in the test with Caov-3 cells, 110 nM.

Consider `CNC(=O)N1N=C(c2ccc(-c3c(C)noc3C)cc2)c2cc(OC)c(OC)cc2C[C@@H]1C` [Example 2.2, (4S)-1-[4-(3,5-Dimethyl-4-isoxazolyl)phenyl]-7,8-dimethoxy-N,4-dimethyl-4,5-dihydro-3H-2,3-benzodiazepine-3-carboxamide], for which the IC50 was 60 nM at BRD4 (BD1); 130 nM with MOLM-13 cells; 100 nM in the test with MV4-11 cells; 110 nM in the test with B16F10 cells; 330 nM with LOX-IMVI cells; 120 nM with MOLP-8 cells. Further, the IC50 came out at 110 nM in the test on KMS-12-PE cells, 90 nM with LAPC-4 cells, 200 nM in the test with MDA-MB-231 cells and 250 nM in the test on Caov-3 cells.

Take `CNC(=O)N1N=C(c2ccc(N3CCOCC3)cc2)c2cc(OC)c(OC)cc2CC1C` (racemic) [Example 7, (±)-7,8-Dimethoxy-N,4-dimethyl-1-[4-(morpholin-4-yl)phenyl]-4,5-dihydro-3H-2,3-benzodiazepine-3-carboxamide]: the IC50 on BRD4 (BD1) is 30 nM; in the test with MOLM-13 cells it was 200 nM; with MV4-11 cells, 170 nM; in the test on B16F10 cells, 140 nM; in the test on LOX-IMVI cells it was 570 nM; in the test on MOLP-8 cells, 120 nM. Further, the IC50 was 90 nM with KMS-12-PE cells, 90 nM in the test with LAPC-4 cells, 250 nM in the test with MDA-MB-231 cells and 400 nM in the test on Caov-3 cells.

Turning to `CNC(=O)N1N=C(c2ccc(N3CCOCC3=O)cc2)c2cc(OC)c(OC)cc2C[C@@H]1C` [Example 40.1, (4S)-7,8-dimethoxy-N,4-dimethyl-1-[4-(3-oxomorpholin-4-yl)phenyl]-4,5-dihydro-3H-2,3-benzodiazepine-3-carboxamide], the concentration for half-maximal inhibition (IC50) at BRD4 (BD1) came to 120 nM; with MOLM-13 cells, 960 nM; in the test with MV4-11 cells, 760 nM; in the test on B16F10 cells, 790 nM; with LOX-IMVI cells, 330 nM; with MOLP-8 cells, 590 nM. For the same molecule, the 50% inhibitory concentration (IC50) in the test on KMS-12-PE cells is 80 nM; in the test on LAPC-4 cells, 290 nM; in the test on MDA-MB-231 cells, 1280 nM.

Consider `CNC(=O)N1N=C(c2ccc(Cl)cc2)c2cc(OC(F)(F)F)ccc2C[C@@H]1C` [Example 1.1, (4S)-1-(4-Chlorophenyl)-N,4-dimethyl-8-(trifluoromethoxy)-4,5-dihydro-3H-2,3-benzodiazepine-3-carboxamide], for which the IC50 at BRD4 (BD1) came to 60 nM; in the test on MOLM-13 cells, 390 nM; with B16F10 cells, 390 nM; in the test on MOLP-8 cells it was 510 nM; in the test with LAPC-4 cells, 600 nM; with MDA-MB-231 cells it was 530 nM.

As for `CNC(=O)N1N=C(c2ccc(N3CCN(C)CC3)cc2)c2cc(OC)c(OC)cc2C[C@@H]1C` [Example 127.1, (4S)-7,8-Dimethoxy-N,4-dimethyl-1-[4-(4-methylpiperazin-1-yl)phenyl]-4,5-dihydro-3H-2,3-benzodiazepine-3-carboxamide], the IC50 on BRD4 (BD1) came to 50 nM; in the test with MOLM-13 cells, 110 nM; with MV4-11 cells it was 70 nM; with B16F10 cells, 100 nM; in the test with LOX-IMVI cells, 290 nM; in the test with MOLP-8 cells, 60 nM. The IC50 in the test on KMS-12-PE cells came out at 90 nM; with LAPC-4 cells it was 40 nM; in the test on MDA-MB-231 cells, 130 nM; in the test on Caov-3 cells it was 170 nM.

Turning to `CNC(=O)N1N=C(c2ccc(-c3c(C)noc3C)cc2)c2cc(OC)c(OC)cc2CC1C` (racemic) [Example 2, (±)-1-[4-(3,5-Dimethyl-4-isoxazolyl)phenyl]-7,8-dimethoxy-N,4-dimethyl-4,5-dihydro-3H-2,3-benzodiazepine-3-carboxamide], the half-inhibitory concentration (IC50) was 80 nM at BRD4 (BD1); 170 nM in the test on MOLM-13 cells; 110 nM in the test with MV4-11 cells; 180 nM in the test on B16F10 cells; 430 nM in the test with LOX-IMVI cells; 120 nM with MOLP-8 cells. For the same molecule, the IC50 in the test on KMS-12-PE cells was 90 nM; in the test on LAPC-4 cells it was 240 nM; in the test on MDA-MB-231 cells, 310 nM; in the test with Caov-3 cells, 310 nM.

Consider `CNC(=O)N1N=C(c2ccc(Cl)cc2)c2cc(C3CC3)ccc2CC1C` (racemic) [Example 9, (±)-1-(4-chlorophenyl)-8-cyclopropyl-N,4-dimethyl-4,5-dihydro-3H-2,3-benzodiazepine-3-carboxamide], for which the concentration for half-maximal inhibition (IC50) on BRD4 (BD1) is 120 nM; with MOLM-13 cells, 650 nM; in the test on B16F10 cells, 540 nM; in the test with LAPC-4 cells it was 430 nM; in the test with MDA-MB-231 cells, 730 nM.

On to `CNC(=O)N1N=C(c2ccc(Cl)cc2)c2cc(N3CCCCC3)ccc2CC1C` (racemic) [Example 13], for which the IC50 on BRD4 (BD1) was found to be 210 nM; with MOLM-13 cells, 1440 nM; with B16F10 cells it was 920 nM; with LAPC-4 cells it was 900 nM; in the test on MDA-MB-231 cells, 1300 nM.
